Data as given in patent US20010025028A1, “Methods of inhibiting bone resorption” (Merck & Co., Inc., priority 1998, published 2001).

Columns and labels:
[1] = tested on: co-culture of mouse bone marrow cells and MB 1.8 mouse osteoblasts; assay: Osteoclastogenesis in murine co-cultures of bone marrow cells and MB 1.8 osteoblasts (TRAP fluorescence or counting of osteoclast-like cells); type: cell-based; conditions: FIG. 1
bone marrow cultures = conditions: cited from earlier work

In the case of `CC1(O)CCOC(=O)C1` (racemic) [D,L-mevalonic acid lactone], the “reversal of lovastatin inhibition of osteoclastogenesis (TRAP fluorescence assay)” value ([1]; D,L-mevalonic acid lactone 1 mM together with 1 or 10 μM lovastatin, added at days 5 and 6, read on day 7) is reported as “reversal”.

For `CC[C@H](C)C(=O)O[C@H]1C[C@@H](C)C=C2C=C[C@H](C)[C@H](CC[C@@H]3C[C@@H](O)CC(=O)O3)[C@H]21` [lovastatin], the “inhibition of osteoclastogenesis (tartrate resistant acid phosphatase activity, percent activity relative to no treatment)” value ([1]; lovastatin 1 and 10 μM added at days 5 and 6, TRAP activity measured on day 7) was “inhibition of osteoclastogenesis”.

For `C[C@@](O)(CCO)CC(=O)O` [mevalonic acid], the “effect of added mevalonic acid on the inhibition of osteoclastogenesis by mevastatin” value (bone marrow cultures; added to mevastatin) is given as “partially restored”.

In the case of `CC[C@H](C)C(=O)O[C@H]1CCC=C2C=C[C@H](C)[C@H](CC[C@@H]3C[C@@H](O)CC(=O)O3)[C@H]21` [mevastatin], the “inhibition of in vitro osteoclastogenesis formation” value (bone marrow cultures) is listed as “inhibit in vitro osteoclastogenesis formation”.
